Like-named read-outs stand apart in the source and are kept apart here. Where a SMILES comes first, the peptide text is derived from it.
Legend:
[1] = ADA: data of Schwarzenbach et al. (1955); cited from earlier work
[2] = cited from earlier work; for αpKa /° C.: change of pKa per ° C.
[3] = ADA: data of Schwarzenbach et al. (1955); cited from earlier work; remark: listed apart in the source
[4] = ADA: data of Schwarzenbach et al. (1955); cited from earlier work; remark: listed apart in the source
[5] = ADA: data of Schwarzenbach et al. (1955); cited from earlier work; remark: listed apart in the source
[6] = cited from earlier work
cancer tumors = assay: Macrophage infiltration of tumors; format: in vivo, dogs; settings: dogs
Text: (§1) The amphoteric zwitterion compounds may be employed as active ingredients with other active ingredients, as well as other components and carriers typically used in pharmaceutical compositions; such as, but not limited to: buffers, stabilizers, dyes, antioxidants, dispersing agents, fillers, surfactants, silicones, bulking agents, pigments, salts, human or animal (natural or synthetic) cells and cellular components, antibiotics, drugs, vitamins, amino acids, proteins, serum and various other compounds and combinations thereof in varying amounts.

[7] = test system: giant platelets and histiocytes; assay: Giant platelets and histiocytes on peripheral smear; format: in vivo, animals; settings: blood / peripheral smear
Text: as §1

[8] = as the hydrochloride (footnote b)

Row | Structure (SMILES) | Metal-Buffer Binding Constants Log KM, Ca^2+ [1] | pKa at 20° [2] | Metal-Buffer Binding Constants Log KM, Mn^2+ [3] | Metal-Buffer Binding Constants Log KM, Cu^2+ [4] | Metal-Buffer Binding Constants Log KM, Mg^2+ [5] | αpKa /° C. [2] | Saturated Solution at 0° [6, 8] [M] | macrophage infiltration of cancer tumors (cancer tumors) | giant platelets and histiocytes [7] | Saturated Solution at 0° [6] [M]
1 | O=S(=O)(O)CCN(CCO)CCO [BES] | Negl | 7.15 | Negl | 3.5 | Negl | – | – | – | – | –
2 | NCC(=O)NCC(=O)O [Glycylglycine] (H-Gly-Gly-OH) | – | 8.4 | 1.7 | 5.8 | – | – | – | – | – | –
3 | NCC(N)=O [Glycinamide] | – | 8.2 | – | – | – | -0.029 | 4.6 | – | – | –
4 | C[N+](C)(C)CCN [Cholamine chloride] | Negl | 7.1 | Negl | Negl | Negl | -0.027 | 4.2 | – | – | –
5 | O=S(=O)(O)CCN1CCOCC1 [MES] | – | – | – | Negl | – | – | – | – | – | –
6 | O=C(O)CN(CCO)CCO [Bicine] | 2.8 | – | – | – | 1.5 | -0.018 | – | – | – | –
7 | O=S(=O)(O)CCN1CCN(CCS(=O)(=O)O)CC1 [PIPES] | Negl | – | Negl | Negl | Negl | – | – | macrophage infiltration of cancer tumors in dogs | production of giant platelets and histiocytes | –
8 | NC(=O)CNCC(=O)O [Acetamidoglycine, Acetamido-glycine] | – | ~7.7 | – | – | – | – | – | – | – | –
9 | NC(=O)CNCCS(=O)(=O)O [ACES] | – | 6.9 | Negl | 4.6 | – | -0.020 | – | – | – | 0.22
10 | NC(=O)CN(CC(=O)O)CC(=O)O [ADA] | 4.0 | 6.6 | 4.9 | 9.7 | 2.5 | – | – | – | – | –
11 | O=C(O)CNC(CO)(CO)CO [Tricine] | 2.4 | – | – | 7.3 | 1.2 | – | – | – | – | 0.8
12 | O=S(=O)(O)CCNC(CO)(CO)CO [TES] | Negl | 7.5 | Negl | 3.2 | Negl | – | – | – | – | 2.6
13 | NC(CO)(CO)CO [Tris] | Negl | – | Negl | – | Negl | – | – | – | – | 2.4
